Assay results published in article PMC7587356, “High-Throughput Screening for Inhibitors of the SARS-CoV-2 Protease Using a FRET-Biosensor” (Molecules, 2020).
Where a name gives a salt, the structure may show the parent alone. Read-outs that look alike come from different tables or passages of the source.

Biological target: SARS-CoV-2 3CLpro (Severe acute respiratory syndrome coronavirus 2, UniProt P0DTD1)
Test: biochemical
Assay type: biochemical
Parameters: Replicate_1 / Replicate_2 / mean / mean (LOPAC_screen_w_protease): unit not given here
Details: for inhibition at 5 µM: 4 h
[1] = LOPAC1280 primary screen with protease, 5 µM compound, mean of two replicates
[2] = LOPAC1280 primary screen with protease, 5 µM compound, replicate 1
[3] = LOPAC1280 primary screen with protease, 5 µM compound, replicate 2
[4] = sheet LOPAC_screen_w_protease, primary screen with protease, mean of two replicates
[5] = sheet LOPAC_screen_w_protease, primary screen with protease, replicate 1
[6] = sheet LOPAC_screen_w_protease, primary screen with protease, replicate 2
[7] = sheet LOPAC_screen_w_protease, primary screen of LOPAC1280 at 5 µM with protease, mean of the two replicates
[8] = sheet LOPAC_screen_w_protease, primary screen of LOPAC1280 at 5 µM with protease, replicate 1
[9] = sheet LOPAC_screen_w_protease, primary screen of LOPAC1280 at 5 µM with protease, replicate 2
[10] = sheet LOPAC_screen_w_protease, primary screen at 5 µM, mean of two replicates, read-out: mean (LOPAC screen with protease)
[11] = sheet LOPAC_screen_w_protease, primary screen at 5 µM, replicate 1, read-out: Replicate_1 (LOPAC screen with protease)
[12] = sheet LOPAC_screen_w_protease, primary screen at 5 µM, replicate 2, read-out: Replicate_2 (LOPAC screen with protease)
[13] = sheet LOPAC_screen_w_protease, LOPAC1280 at 5 µM, mean of two replicates, read-out: mean
[14] = sheet LOPAC_screen_w_protease, LOPAC1280 at 5 µM, replicate 1, read-out: Replicate_1
[15] = sheet LOPAC_screen_w_protease, LOPAC1280 at 5 µM, replicate 2, read-out: Replicate_2
[16] = sheet LOPAC_screen_w_protease, primary screen at 5 µM, mean of two replicates
[17] = sheet LOPAC_screen_w_protease, primary screen at 5 µM, replicate 1
[18] = sheet LOPAC_screen_w_protease, primary screen at 5 µM, replicate 2
[19] = sheet LOPAC_screen_w_protease, LOPAC1280 at 5 µM, mean of two replicates
[20] = sheet LOPAC_screen_w_protease, LOPAC1280 at 5 µM, replicate 1
[21] = sheet LOPAC_screen_w_protease, LOPAC1280 at 5 µM, replicate 2
[22] = LOPAC1280 primary screen with protease, 5 µM compound, mean of the two replicates
[23] = sheet LOPAC_screen_w_protease, primary screen with protease, compound at 5 µM, mean of two replicates
[24] = sheet LOPAC_screen_w_protease, primary screen with protease, compound at 5 µM, replicate 1
[25] = sheet LOPAC_screen_w_protease, primary screen with protease, compound at 5 µM, replicate 2

SMILES: OCc1ccc(-c2nn(Cc3ccccc3)c3ccccc23)o1 [YC-1]
- mean (LOPAC_screen_w_protease) [1]: 1.333
- Replicate_1 (LOPAC_screen_w_protease) [2]: 0.3284
- Replicate_2 (LOPAC_screen_w_protease) [3]: 2.338

SMILES: CSc1nc(N)c2ncn([C@@H]3O[C@H](COP(=O)([O-])OP(=O)([O-])OP(=O)([O-])[O-])[C@@H](O)[C@H]3O)c2n1.[Na+].[Na+].[Na+].[Na+]
- mean [4]: 2.299
- Replicate_1 [5]: 2.88
- Replicate_2 [6]: 1.718

SMILES: N=C(N)NC(=O)c1nc(Cl)c(N2CCCCCC2)nc1N [5-(N,N-hexamethylene)amiloride]
- mean [4]: 2.452
- Replicate_1 [5]: 2.2643
- Replicate_2 [6]: 2.64

SMILES: Cl.c1ccc(CN(CC2=NCCN2)c2ccccc2)cc1 [Antozoline hydrochloride]
- mean [7]: 3.208
- Replicate_1 [8]: 3.9302
- Replicate_2 [9]: 2.486

SMILES: CCOC(=O)Nc1ccc(NCc2ccc(F)cc2)nc1N [Flupirtine maleate]
- inhibition at 5 µM [10]: 10.9%
- inhibition at 5 µM [11]: 11.1%
- inhibition at 5 µM [12]: 10.6%

SMILES: Nc1cc(=O)[nH]c(N)n1 [2,6-Diamino-4-pyrimidinone]
- mean [7]: 3.421
- Replicate_1 [8]: 3.441
- Replicate_2 [9]: 3.4

SMILES: Cc1ccc(C(=O)Nc2ccc(S(=O)(=O)O)c3cc(S(=O)(=O)O)cc(S(=O)(=O)O)c23)cc1NC(=O)c1cccc(NC(=O)Nc2cccc(C(=O)Nc3cc(C(=O)Nc4ccc(S(=O)(=O)O)c5cc(S(=O)(=O)O)cc(S(=O)(=O)O)c45)ccc3C)c2)c1 [Suramin hexasodium]
- inhibition at 5 µM [13]: 1.22%
- inhibition at 5 µM [14]: 2.66%
- inhibition at 5 µM [15]: -0.222%

SMILES: Br.Oc1cc2c(c(Cl)c1O)CCNCC2c1ccccc1 (racemic) [(±)-6-Chloro-PB hydrobromide]
- mean (LOPAC screen with protease) [16]: 66.2827
- Replicate_1 (LOPAC screen with protease) [17]: 64.3769
- Replicate_2 (LOPAC screen with protease) [18]: 68.1884

SMILES: N[C@H](CCC(=O)NCS(=O)(=O)O)C(=O)O [gamma-D-Glutamylaminomethylsulfonic acid]
- mean [19]: 1.223
- Replicate_1 [20]: 4.708
- Replicate_2 [21]: -2.2619

SMILES: CN1C[C@@H](NS(=O)(=O)N(C)C)C[C@@H]2c3cccc4c3c(cn4C)C[C@H]21 [Mesulergine hydrochloride]
- inhibition at 5 µM (sheet LOPAC_screen_w_protease, LOPAC1280 primary screen with protease, 5 µM compound, mean of the two replicates, read-out: mean): 5.36%
- inhibition at 5 µM (sheet LOPAC_screen_w_protease, LOPAC1280 primary screen with protease, 5 µM compound, replicate 1, read-out: Replicate_1): 4.85%
- inhibition at 5 µM (sheet LOPAC_screen_w_protease, LOPAC1280 primary screen with protease, 5 µM compound, replicate 2, read-out: Replicate_2): 5.86%

SMILES: S=C(NC1CCCCC1)N1CCC(c2cnc[nH]2)CC1 [Thioperamide maleate]
- inhibition at 5 µM (sheet LOPAC_screen_w_protease, primary screen with protease, 5 µM, mean of two replicates, read-out: mean): -0.179%
- inhibition at 5 µM (sheet LOPAC_screen_w_protease, primary screen with protease, 5 µM, replicate 1, read-out: Replicate_1): -0.586%
- inhibition at 5 µM (sheet LOPAC_screen_w_protease, primary screen with protease, 5 µM, replicate 2, read-out: Replicate_2): 0.227%

SMILES: CC(C)NCC(O)c1ccc(O)c(O)c1.Cl (single isomer, unassigned; (-)) [(-)-Isoproterenol hydrochloride]
- mean (LOPAC_screen_w_protease) [22]: 2.084
- Replicate_2 (LOPAC_screen_w_protease) [3]: 1.275

SMILES: Cl.OCc1c[nH]cn1 [4-Imidazolemethanol hydrochloride]
- mean [19]: 1.065
- Replicate_1 [20]: 2.558
- Replicate_2 [21]: -0.4285

SMILES: Nc1c(S(=O)(=O)O)cc(Nc2ccc(Nc3nc(Cl)nc(Nc4cccc(S(=O)(=O)O)c4)n3)c(S(=O)(=O)O)c2)c2c1C(=O)c1ccccc1C2=O [Reactive Blue 2]
- inhibition at 5 µM (sheet LOPAC_screen_w_protease, LOPAC1280 primary screen at 5 µM, with protease, mean of the two replicates, read-out: mean): 0.827%
- inhibition at 5 µM (sheet LOPAC_screen_w_protease, LOPAC1280 primary screen at 5 µM, with protease, replicate 1, read-out: Replicate_1): -0.139%
- inhibition at 5 µM (sheet LOPAC_screen_w_protease, LOPAC1280 primary screen at 5 µM, with protease, replicate 2, read-out: Replicate_2): 1.79%

SMILES: Nc1nc2c(nc(Br)n2[C@@H]2O[C@@H]3COP(=O)([O-])O[C@H]3[C@H]2O)c(=O)[nH]1.[Na+] [8-Bromo-cGMP sodium]
- mean [23]: 2.652
- Replicate_1 [24]: 4.1
- Replicate_2 [25]: 1.204

SMILES: CCn1cc(C(=O)[O-])c(=O)c2ccc(C)nc21.[Na+] [Nalidixic acid sodium]
- mean (sheet LOPAC_screen_w_protease, LOPAC1280 primary screen with protease, 5 µM compound, mean of the two replicates): 4.611
- Replicate_1 (sheet LOPAC_screen_w_protease, LOPAC1280 primary screen with protease, 5 µM compound, replicate 1): 4.1091
- Replicate_2 (sheet LOPAC_screen_w_protease, LOPAC1280 primary screen with protease, 5 µM compound, replicate 2): 5.113

SMILES: CCCCCCCCCCCCCCCCCC(=O)OC(CC(=O)O)C[N+](C)(C)C.[Cl-] (racemic) [DL-Stearoylcarnitine chloride]
- mean (LOPAC_screen_w_protease) [22]: 1.7681
- Replicate_1 (LOPAC_screen_w_protease) [2]: 3.299
- Replicate_2 (LOPAC_screen_w_protease) [3]: 0.2369

SMILES: CN(C)CC[C@@H](c1ccc(Br)cc1)c1ccccn1 [(+)-Brompheniramine maleate]
- inhibition at 5 µM [13]: 1.03%
- inhibition at 5 µM [14]: 0.743%
- inhibition at 5 µM [15]: 1.32%

SMILES: C[C@@H]1OC[C@H](C[N+](C)(C)C)O1.[I-] [(+)-cis-Dioxolane iodide]
- mean (LOPAC screen with protease) [16]: 7.2322
- Replicate_1 (LOPAC screen with protease) [17]: 5.683
- Replicate_2 (LOPAC screen with protease) [18]: 8.781

SMILES: NC[C@@H]1O[C@H](O[C@H]2[C@@H](O)[C@H](O[C@@H]3[C@@H](O)[C@H](N)C[C@H](N)[C@H]3O[C@H]3O[C@H](CO)[C@@H](O)[C@H](O)[C@H]3N)O[C@@H]2CO)[C@H](N)[C@@H](O)[C@@H]1O [Paromomycin sulfate]
- inhibition at 5 µM [10]: 7.62%
- inhibition at 5 µM [11]: 8.4%
- inhibition at 5 µM [12]: 6.83%

SMILES: CC(=N)NCCC[C@H](N)C(=O)O.Cl
- mean [23]: 2.835
- Replicate_1 [24]: 2.586
- Replicate_2 [25]: 3.084

SMILES: Cl.Cn1ccc2cc(NC(=O)Nc3cccnc3)ccc21 [SB 200646 hydrochloride]
- mean [23]: 2.882
- Replicate_1 [24]: 2.958
- Replicate_2 [25]: 2.805

SMILES: NC(CCCCCP(=O)(O)O)C(=O)O (racemic) [(±)-2-Amino-7-phosphonoheptanoic acid]
- mean [7]: 3.542
- Replicate_1 [8]: 3.653
- Replicate_2 [9]: 3.43

SMILES: CN(C)CCC(c1ccc(Cl)cc1)c1ccccn1.O=C(O)/C=C\C(=O)O (racemic) [(±)-Chlorpheniramine maleate]
- Replicate_1: 0.5322
- Replicate_2: -0.472
- mean: 0.03007

SMILES: CCN1CCc2nc(N)oc2CC1.Cl.Cl [B-HT 933 dihydrochloride]
- mean [23]: 2.82
- Replicate_1 [24]: 2.163
- Replicate_2 [25]: 3.476

SMILES: Br.Br.N=C(N)SCCc1cccc(CCSC(=N)N)c1 [1,3-PBIT dihydrobromide]
- mean (LOPAC_screen_w_protease) [1]: 1.415
- Replicate_1 (LOPAC_screen_w_protease) [2]: 1.3545
- Replicate_2 (LOPAC_screen_w_protease) [3]: 1.476

SMILES: N[C@@H]1C[C@H]1c1ccccc1 [Tranylcypromine hydrochloride]
- Replicate_1: 0.4955
- Replicate_2: 0.8775
- mean: 0.6865

SMILES: COC(=O)c1c(-c2cc(OC)c(OC)c(OC)c2)c2ccc(OCc3ccccn3)cc2c(=O)n1-c1ccc(N)cc1.O=S(=O)(O)O [T-1032]
- mean (sheet LOPAC_screen_w_protease, LOPAC1280 primary screen at 5 µM, with protease, mean of the two replicates): 0.5404
- Replicate_1 (sheet LOPAC_screen_w_protease, LOPAC1280 primary screen at 5 µM, with protease, replicate 1): 1.02
- Replicate_2 (sheet LOPAC_screen_w_protease, LOPAC1280 primary screen at 5 µM, with protease, replicate 2): 0.06128

SMILES: NS(=O)(=O)c1cc2c(cc1Cl)NC(C1CC3C=CC1C3)NS2(=O)=O (centres unmarked) [Cyclothiazide]
- inhibition at 5 µM (sheet LOPAC_screen_w_protease, primary screen with protease, compound at 5 µM, mean of two replicates, read-out: mean): 2.93%
- inhibition at 5 µM (sheet LOPAC_screen_w_protease, primary screen with protease, compound at 5 µM, replicate 1, read-out: Replicate_1): 4.25%
- inhibition at 5 µM (sheet LOPAC_screen_w_protease, primary screen with protease, compound at 5 µM, replicate 2, read-out: Replicate_2): 1.61%

SMILES: CCCCCCCCCCCCCCCC(=O)OC(CC(=O)O)C[N+](C)(C)C.[Cl-] (racemic) [Palmitoyl-DL-Carnitine chloride]
- mean [23]: 2.684
- Replicate_1 [24]: 2.378
- Replicate_2 [25]: 2.9894

SMILES: Cn1ccc2cc3c(cc21)CCN3C(=O)Nc1cccnc1 [SB 206553 hydrochloride]
- mean [23]: 2.821
- Replicate_1 [24]: 3.909
- Replicate_2 [25]: 1.733

SMILES: Cc1cc(NC(=O)Nc2ccc3c(ccn3C)c2)sn1 [SB 204741]
- mean (sheet LOPAC_screen_w_protease, primary screen with protease, 5 µM, mean of two replicates): 0.4215
- Replicate_1 (sheet LOPAC_screen_w_protease, primary screen with protease, 5 µM, replicate 1): 0.3793
- Replicate_2 (sheet LOPAC_screen_w_protease, primary screen with protease, 5 µM, replicate 2): 0.4638
